Results as given in paper PMC6538953, “Metal Ions Activate the Human Taste Receptor TAS2R7” (Chemical Senses, 2019).
Positions count from the first letter of the chain named.

Tests used:
[1] = target: T1, human TAS2R7 E264^7.32Q mutant (Homo sapiens, UniProt Q9NYW3, E264Q); assay: Calcium mobilization assay, TAS2R7 mutant E264Q; type: cell-based; conditions: 20 mM metal ions except 0.16 mM Al2(SO4)3; cromolyn 10 mM; Figure 6C
T1 construct: signal peptide: first 45 amino acid residues of rat somatostatin receptor 3 (N); expressed in transfected cells; host or cells: HEK293 PEAKrapid (ATCC CRL-2828), transient, co-transfected with Gα16-gust44
T1 sequence (Q9NYW3 1-318 E264Q): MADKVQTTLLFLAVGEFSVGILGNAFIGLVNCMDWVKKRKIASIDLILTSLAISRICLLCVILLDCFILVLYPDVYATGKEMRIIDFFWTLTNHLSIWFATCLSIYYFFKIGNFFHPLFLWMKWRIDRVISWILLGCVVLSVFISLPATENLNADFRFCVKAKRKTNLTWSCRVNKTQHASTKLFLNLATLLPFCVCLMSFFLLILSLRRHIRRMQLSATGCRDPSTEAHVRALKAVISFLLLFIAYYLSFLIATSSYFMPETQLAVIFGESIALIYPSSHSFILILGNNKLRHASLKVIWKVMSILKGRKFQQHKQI
Source text: (§1) The coding sequences of human TAS2Rs were amplified from human genomic DNA, then subcloned into pcDNA3.1(+) vector, with the herpes simplex virus glycoprotein D epitope (HSV) at the C-terminal and a signal peptide consisting of the first 45 amino acid residues of the rat somatostatin receptor 3 at the N-terminal, essentially as described previously ([Bufe et al. 2002]). Point mutations in human TAS2R7 (NCBI Reference Sequence: NP_076408.1) were constructed by site-directed mutagenesis. All the constructs were confirmed by Sanger sequencing.
(§2) Human embryonic kidney 293 (PEAKrapid, ATCC # CRL-2828) cells were cultured in Opti-MEM medium with 4% fetal bovine serum. […] After incubation, cells were washed 2 times with HBSS (including 10 mM HEPES), incubated in the dark for another 30 min, and then washed with assay solution once more before running the assay using a FlexStation III reader. Relative fluorescence units (excitation at 494 nm, emission at 516 nm, and auto cutoff at 515 nm) were read every 2 s for 2 min. Calcium mobilization traces were recorded.
(§3) Calcium mobilization traces were raw data obtained from single wells. Changes in fluorescence (ΔF) were calculated as the peak fluorescence minus baseline fluorescence ([Lei et al. 2015]). The calcium mobilization was quantified as the percentage of change (ΔF) relative to baseline (F). […]

[2] = target: T2, human TAS2R7 E264^7.32L mutant (Homo sapiens, UniProt Q9NYW3, E264L); assay: Calcium mobilization assay, TAS2R7 mutant E264L; type: cell-based; conditions: 20 mM metal ions except 0.16 mM Al2(SO4)3; cromolyn 10 mM; Figure 6B
T2 construct: signal peptide: first 45 amino acid residues of rat somatostatin receptor 3 (N); expressed in transfected cells; host or cells: HEK293 PEAKrapid (ATCC CRL-2828), transient, co-transfected with Gα16-gust44
T2 sequence (Q9NYW3 1-318 E264L): T1 sequence (Q9NYW3 1-318 E264Q) with Q264L
Source text: as §1
(§4) Human embryonic kidney 293 (PEAKrapid, ATCC # CRL-2828) cells were cultured in Opti-MEM medium with 4% fetal bovine serum. One day before transfection, cells were seeded on a 96-well plate at a density of 25 000 per well. Cells were then transiently transfected with a TAS2R construct (0.1 µg/well) along with a G protein Gα16-gust44 (0.1 µg/well) construct by Lipofectamine 2000 (0.5 µl/well). For controls, only Gα16-gust44 was used (mock transfection). Twenty-four hours after transfection, cells were washed with HBSS including 10 mM HEPES and loaded with Fluo-4 in the dark for 1 h. After incubation, cells were washed 2 times with HBSS (including 10 mM HEPES), incubated in the dark for another 30 min, and then washed with assay solution once more before running the assay using a FlexStation III reader. Relative fluorescence units (excitation at 494 nm, emission at 516 nm, and auto cutoff at 515 nm) were read every 2 s for 2 min. Calcium mobilization traces were recorded.
(§5) Calcium mobilization traces were raw data obtained from single wells. Changes in fluorescence (ΔF) were calculated as the peak fluorescence minus baseline fluorescence ([Lei et al. 2015]). The calcium mobilization was quantified as the percentage of change (ΔF) relative to baseline (F). […] Calcium mobilization traces and bar graphs along with dose-dependent plots were all generated by GraphPad Prism 7. Analysis of variance with Dunnett’s multiple comparisons test was used for statistical analysis. *P < 0.05. […]

[3] = target: T3, human TAS2R7 E271^7.39 to leucine mutant (Homo sapiens, UniProt Q9NYW3, E271L); assay: Calcium mobilization assay, TAS2R7 mutant E271L; type: cell-based; conditions: 20 mM metal ions except 0.16 mM Al2(SO4)3; cromolyn 10 mM; Figure 6C
T3 construct: signal peptide: first 45 amino acid residues of rat somatostatin receptor 3 (N); expressed in transfected cells; host or cells: HEK293 PEAKrapid (ATCC CRL-2828), transient, co-transfected with Gα16-gust44
T3 sequence (Q9NYW3 1-318 E271L): T1 sequence (Q9NYW3 1-318 E264Q) with Q264E, E271L
Source text: as §1, §2, §3

[4] = tested on: mock-transfected HEK293 cells (Gα16-gust44 only); assay: Calcium mobilization assay, mock-transfected cells (Gα16-gust44 only); type: cell-based, human; conditions: any concentration tested (cromolyn 10 mM)
Description: as §4
as §5, with “7.” for “7. Analysis of variance with Dunnett’s multiple comparisons test was used for statistical analysis. *P < 0.05.”

human TAS2R7 = target: T4, human TAS2R7 (Homo sapiens, UniProt Q9NYW3); parameters: method as in Meyerhof et al. 2010; conditions: ref Meyerhof et al. 2010; cited from earlier work
T4 construct: first 45 residues of rat somatostatin receptor 3 (signal peptide) (N); expressed in transfected cells; host or cells: HEK293 (PEAKrapid, ATCC CRL-2828)
T4 sequence (Q9NYW3 1-318): T1 sequence (Q9NYW3 1-318 E264Q) with Q264E

Structure (SMILES): O=C(O)c1cc(=O)c2c(OCC(O)COc3cccc4oc(C(=O)O)cc(=O)c34)cccc2o1 [cromolyn, reference compound]
- Response of E264Q mutant receptor [1]: reduced responses
- Response of E264L mutant receptor [2]: reduced
- Response of E271 to leucine mutant receptor [3]: slightly reduced responses
- Response of mock-transfected cells [4]: not
- TAS2R7 reported to respond to bitter compounds (human TAS2R7): respond
